Data taken from patent US11684599B2, “Very-long-chain polyunsaturated fatty acids, elovanoid hydroxylated derivatives, and methods of use” (Board of Supervisors of Louisiana State University and …, priority 2017, dated 2023).

How the values were obtained:
[1] = system: cerebral cortical mixed neuronal cells or hippocampal neurons; assay: Oxygen glucose deprivation (OGD) of neurons in culture, cell viability; assay type: cell-based, rat; settings: for neuroprotection against OGD-induced neuronal cell death: 200 nM, 500 nM or 1 μM added after 90 mins OGD and 2 h reoxygenation, Hoechst, calcein or MTT
Excerpt: Primary cultures of cortical and hippocampal neurons were harvested from 18-day-old embryos (E18) taken from timed-pregnant, two-month-old Sprague-Dawley (SD) rats (Charles River Lab., Wilmington, Mass.). Briefly, timed-pregnant SD rats were euthanized and embryos were collected in sterile conditions. Embryonic brains were dissected out by forceps on ice and placed in a petri dish containing ice-cold Hank's Balanced Salt Solution (HBSS) (GIBCO). Meninges were removed under a dissecting microscope and cortical tissues were chopped into small pieces with micro-spring scissors. These tissues were transferred to 15 ml tubes containing trypsin-EDTA (0.025% in HBSS) and DNase I. The tubes were incubated in 37° C. chamber for 15 mins and were agitated every 5 mins. After stopping the trypsinization with 5 ml 10% FBS, these tissues were triturated 15 times with a fire polished Pasteur pipet. Cell clumps were left to settle for 2 mins and the supernatant was transferred to a 15 ml Eppendorf tube. The supernatant was filtered through a 70 μm pore-sized filter (Corning cell strainer) and centrifuged for 5 mins at 1000 rpm. The cells were then resuspended in Neurobasal medium (GIBCO) containing 2% B27 (GIBCO) and 2% N2 (GIBCO) supplements, along with 0.5 mM glutamine, 50 U/ml penicillin/streptomycin.
Cells were counted using a Neubauer hemocytometer. 1×10^6 cells were seeded on poly-D-lysine-coated 12 well cell culture dish (CORNING) and cultured in incubator (37° C., 5% CO2). Culture medium was first replaced after 24 h, then half of the medium was replaced with fresh medium every three days. As a result, approximately, 90% purity of neurons was obtained as determined by class-III-β tubulin, GFAP and Hoechst 33258 staining. Cells were maintained in culture for about 2 weeks until they were exposed to uncompensated oxidative stress, OGD, or NMDA excitotoxicity.
An in vitro oxygen glucose deprivation (OGD) model was established. Primary cortical neurons were cultured from SD rat embryos. On day in vitro (DIV) 12, cells were washed with phosphate-buffered saline and incubated in glucose-free Neurobasal medium (GIBCO) for 30 mins. The cells were then placed in a modular incubator chamber and incubated in an anaerobic chamber (95% N2, 5% CO2) at 37° C. for 90 mins for OGD.
After 90 mins of OGD exposure, cells were returned to the original medium (Neurobasal medium (GIBCO) containing 2% B27 (GIBCO) and 2% N2 (GIBCO) supplements, along with 0.5 mM glutamine, 50 U/ml penicillin/streptomycin) and placed in a normoxic chamber (37° C., 5% CO2) for 2 h. […] a normoxic chamber (37° C., 5% CO2) for 12 h, after which cells were sampled and assayed for cell viability using different methods as previously described (25-28). Cerebral cortical mixed neuronal cells or hippocampal cells in culture were exposed to either NMDA or uncompensated oxidative stress (UOS) for 12 h by addition of either NMDA (25 μM, 50 μM, or 100 μM) concentration or by the addition of TNFα (10 ng/mL) and H2O2 (50 μM, 100 μM, or 200 μM). Cell viability and neuroprotection in the presence of ELV-N32, ELV-N34, 32:6, or 34:6 were assayed after 12 h.
Cells were washed with 1× Dulbecco's Phosphate Buffered Saline (DPBS) containing no calcium or magnesium (GIBCO) and fixed for 10 mins using ice-cold 4% paraformaldehyde (PFA) followed by 15 mins incubation in 100% methanol. Cells were washed with 1× Phosphate Buffered Saline (PBS) pH 7.4 (GIBCO) and incubated in PBS containing 20 μM Hoechst 33258 (Molecular Probes) for 20 mins. Cells were then washed 3 times with 1×PBS and stored in 1×PBS at 4° C. until they were imaged for microscopy.
One 4×4 tile mosaic was acquired from the center of each well using a Zeiss 510 Meta laser confocal microscope and LSM 510 Meta software. Images were imported into image analysis software ImageJ (National Institutes of Health, Bethesda, Md.) and batch processed using custom macros. […]

[2] = system: rats with middle cerebral artery occlusion (MCAo); assay: Ex vivo MRI (T2WI) lesion, core and penumbra volumes after MCAo; assay type: in vivo, rat; settings: day 7, compared to CSF-treated group
Method: Male Sprague-Dawley rats (Charles River Lab., Wilmington, Mass.) weighing 280-340 g were fasted overnight but allowed free access to water. Atropine sulfate (0.5 mg/kg, i.p.) was injected 10 mins before anesthesia. Anesthesia was induced with 3% isoflurane in a mixture of 70% nitrous oxide and 30% oxygen. All rats were orally intubated and mechanically ventilated. During ventilation, the animals were paralyzed with pancuronium bromide (0.6 mg/kg, i.p.). The catheters were implanted into the right femoral artery and vein for the blood sampling and infusion of drug. Serial analyses of arterial blood gases, plasma glucose, arterial blood pressure and heart beating rate were conducted before and during surgical procedure. Rectal (CMA/150 Temperature Controller, CMA/Microdialysis AB, Stockholm, Sweden) and cranial (temporalis muscle; Omega Engineering, Stamford, Conn.) temperatures were closely monitored before, during and after MCAo. Rectal temperature and body weight were monitored daily until sacrifice.
Rats underwent 2 h of right middle cerebral artery occlusion (MCAo) by an intraluminal-filament. In brief, the right common carotid artery (CCA) bifurcation was exposed through a midline neck incision and the occipital artery branches of the external carotid artery were isolated, ligated and dissected. After careful isolation of the internal carotid artery (ICA), a 3-0 monofilament coated with poly-L-lysine was advanced through the ICA to the MCA until mild resistance was felt. The neck incision was closed with a silk suture and the animals were then allowed to recover. After 2 h of MCAo, rats were re-anesthetized with the same anesthetic combination. Temperature probes were re-inserted, and intraluminal sutures were carefully removed. The animals given free access to food and water for 7 days.
Thirty minutes after suture removal, a brain infusion cannula was implanted into the right lateral ventricle for treatment administration in each rat. Rats were anesthetized with 3% isoflurane and were secured to a stereotaxic apparatus with skull leveled between bregma and lambda. A sterile stainless steel cannula (5-mm long) was implanted into the lateral ventricle using the stereotaxic coordinates (0.2 mm caudal to bregma, 2 mm lateral to midline, and 5 mm below the dura). Cannulas were removed after treatment was completed.
Elovanoids (ELV) as sodium salts (Na) or methyl esters (Me) were dissolved in artificial cerebral spinal fluid (CSF) and administered into right lateral ventricle 1 hour after 2 h of MCAo. The following ELVs were used: ELV-N32-Na, ELV-N32-Me, ELV-N34-Na and ELV-N34-Me (5 μg/[…]) or CSF (50 μl). All treatments were administered by a researcher blinded to the treatment groups. […]

[3] = 250 nM added after OGD exposure
[4] = 500 nM, 90 min OGD, hippocampal (DIV 12) or cortical (DIV 28) culture

| Structure (SMILES) | neuroprotection after OGD by VLC-PUFA precursor [1, 3] | neuroprotection after OGD by VLC-PUFA precursor [1, 4] | neuroprotection against OGD-induced neuronal cell death [1] | reduction of total lesion volume [2] [%] |
| --- | --- | --- | --- | --- |
| CC/C=C\C/C=C\C/C=C\C/C=C\C/C=C\C/C=C\CCCCCCCCCCCCC(=O)O [32:6n3, (14Z,17Z,20Z,23Z,26Z,29Z)-dotriaconta-14,17,20,23,26,29-hexaenoic acid] | provide neuroprotection | showed neuroprotection | – | – |
| CC/C=C\C/C=C\C/C=C\C/C=C\C/C=C\C/C=C\CCCCCCCCCCCCCCC(=O)O [34:6n3, (16Z,19Z,22Z,25Z,28Z,31Z)-tetratriaconta-16,19,22,25,28,31-hexaenoic acid] | elicit neuroprotection | showed neuroprotection | – | – |
| CC/C=C\C[C@H](O)\C=C/C=C/C=C/[C@H](O)C/C=C\C/C=C\CCCCCCCCCCCCC(=O)OC [ELV-N32-Me, methyl (14Z,17Z,20R,21E,23E,25Z,27S,29Z)-20,27-dihydroxydotriaconta-14,17,21,23,25,29-hexaenoate] | – | – | elicited neuroprotection | 56 |
| CC/C=C\C[C@H](O)\C=C/C=C/C=C/[C@H](O)C/C=C\C/C=C\CCCCCCCCCCCCC(=O)[O-].[Na+] [ELV-N32-Na, sodium (14Z,17Z,20R,21E,23E,25Z,27S,29Z)-20,27-dihydroxydotriaconta-14,17,21,23,25,29-hexaenoate] | – | – | elicited neuroprotection | 60 |
| CC/C=C\C[C@H](O)\C=C/C=C/C=C/[C@H](O)C/C=C\C/C=C\CCCCCCCCCCCCCCC(=O)OC [ELV-N34-Me, methyl (16Z,19Z,22R,23E,25E,27Z,29S,31Z)-22,29-dihydroxytetratriaconta-16,19,23,25,27,31-hexaenoate] | – | – | elicited neuroprotection | 91 |
| CC/C=C\C[C@H](O)\C=C/C=C/C=C/[C@H](O)C/C=C\C/C=C\CCCCCCCCCCCCCCC(=O)[O-].[Na+] [ELV-N34-Na, sodium (16Z,19Z,22R,23E,25E,27Z,29S,31Z)-22,29-dihydroxytetratriaconta-16,19,23,25,27,31-hexaenoate] | – | – | elicited neuroprotection | 99 |
